Reference: ChEMBL document CHEMBL1201862, “PubChem BioAssay data set” (2004)
Values belong to the compound of their own block, whether it stands above or below them. Activity calls are given as the source filed them.

How the values were obtained:
[1] = target: T1, Rac GTPase-activating protein 1 (Homo sapiens, UniProt Q9H0H5); assay: MgcRacGAP GTPase-activating activity inhibitors, confirmation, biochemical, ADP Hunter fluorescence, primary and confirmatory (AID 624330); format: functional
T1 sequence (Q9H0H5 whole entry): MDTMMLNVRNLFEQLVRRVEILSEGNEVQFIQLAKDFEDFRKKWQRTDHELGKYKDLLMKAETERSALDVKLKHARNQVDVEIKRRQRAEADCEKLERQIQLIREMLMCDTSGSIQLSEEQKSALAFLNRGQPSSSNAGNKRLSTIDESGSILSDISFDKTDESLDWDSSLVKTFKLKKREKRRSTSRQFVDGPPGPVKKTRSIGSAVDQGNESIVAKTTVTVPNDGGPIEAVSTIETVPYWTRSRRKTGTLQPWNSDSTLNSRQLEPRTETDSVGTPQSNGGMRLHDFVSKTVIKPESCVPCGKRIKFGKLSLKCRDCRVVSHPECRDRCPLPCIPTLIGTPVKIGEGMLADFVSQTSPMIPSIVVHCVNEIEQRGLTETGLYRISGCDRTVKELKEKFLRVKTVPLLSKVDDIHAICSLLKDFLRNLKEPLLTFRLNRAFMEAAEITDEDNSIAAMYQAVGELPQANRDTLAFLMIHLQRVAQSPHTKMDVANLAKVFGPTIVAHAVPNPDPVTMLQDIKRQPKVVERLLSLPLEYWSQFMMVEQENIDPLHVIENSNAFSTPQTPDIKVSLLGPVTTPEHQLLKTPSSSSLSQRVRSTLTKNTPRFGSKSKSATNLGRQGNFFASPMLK

[2] = inhibitors of HIV Env-driven cell fusion, dose response, cherry-pick (AID 652057); format: functional, cell-based
[3] = A549 cell cytotoxicity, dose response, cytotoxicity control, plate reader, cherry-pick, antagonist series (AID 743412); format: functional, cell-based
Paired box protein Pax-8 = Paired box protein Pax-8 (Homo sapiens, UniProt Q06710); assay: inhibitors of PAX8-driven TPO luciferase reporter, dose response, RMG-I cells, cherry-pick (AID 687027); format: functional, cell-based;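 note: luciferase reporter driven by Pax8 target thyroperoxidase promoter measured by SteadyGlo luminescence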
Chain of Paired box protein Pax-8 (Q06710 whole entry): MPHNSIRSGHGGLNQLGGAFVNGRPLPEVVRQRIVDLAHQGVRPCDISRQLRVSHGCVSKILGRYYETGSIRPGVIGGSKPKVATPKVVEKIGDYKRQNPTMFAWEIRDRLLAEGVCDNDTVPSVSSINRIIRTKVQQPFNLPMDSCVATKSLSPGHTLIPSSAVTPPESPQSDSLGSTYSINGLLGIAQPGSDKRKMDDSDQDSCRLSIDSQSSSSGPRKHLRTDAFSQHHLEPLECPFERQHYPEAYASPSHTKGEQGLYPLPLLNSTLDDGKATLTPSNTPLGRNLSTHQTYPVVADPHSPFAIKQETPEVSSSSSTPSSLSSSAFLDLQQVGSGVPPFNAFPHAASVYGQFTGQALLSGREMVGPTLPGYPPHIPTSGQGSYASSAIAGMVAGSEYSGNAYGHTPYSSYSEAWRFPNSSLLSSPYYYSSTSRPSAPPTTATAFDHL

[4] = MC4R antagonists, dose response, counter-screen for LGR2 antagonist project, cell-based, plate reader, cherry pick (AID 743444); format: functional;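 note: transfected HEK 293 cells stimulated with alpha-MSH peptide; potency of inhibitors of the alpha-MSH evoked signal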
[5] = LGR2 antagonists, dose response, cell-based, HEK293, CRE-luciferase reporter, cherry pick, set 2 (AID 743343); format: functional;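 note: transfected cells were stimulated with diluted bursicon conditioned medium after compound addition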
[6] = target: T2, Oxysterols receptor LXR-beta (Homo sapiens, UniProt P55055); format: functional, cell-based
T2 sequence (P55055 whole entry): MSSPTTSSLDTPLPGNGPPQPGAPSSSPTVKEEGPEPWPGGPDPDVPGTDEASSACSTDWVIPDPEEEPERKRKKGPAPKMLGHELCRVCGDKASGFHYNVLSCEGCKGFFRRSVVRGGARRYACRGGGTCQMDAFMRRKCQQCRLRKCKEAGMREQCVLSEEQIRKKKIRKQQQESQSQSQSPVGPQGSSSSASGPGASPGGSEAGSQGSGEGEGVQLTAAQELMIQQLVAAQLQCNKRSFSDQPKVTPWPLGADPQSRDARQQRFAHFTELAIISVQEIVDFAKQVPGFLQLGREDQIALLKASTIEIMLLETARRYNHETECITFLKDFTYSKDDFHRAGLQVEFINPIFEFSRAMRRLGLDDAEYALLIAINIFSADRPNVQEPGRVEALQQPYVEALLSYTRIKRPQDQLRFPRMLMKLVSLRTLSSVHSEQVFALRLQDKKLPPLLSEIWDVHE

[7] = ZM109 Env clade C HIV-1 fusion inhibitors, dose response, HeLa effector, CEM target cells, luciferase, cherry-pick (AID 652058); format: functional, cell-based
[8] = off-target signal loss in HeLa-CEM21 co-culture – HeLa F-luc CTL cells, cherry-picked, counter-screen for HIV-1 Env fusion inhibitor project, dose response (AID 652040); format: functional, cell-based;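 note: potency for signal decrease marking cytotoxic or nonspecific inhibition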
[9] = inhibitors of clade B AD8 Env fusion, dose response, cell-based, cherry-pick (AID 652062); format: functional;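 note: luciferase signal from cell-cell fusion driven by HIV-1 clade B AD8 Env; potency is for inhibitors of fusion seen as a drop in luminescence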
[10] = target: T2, Oxysterols receptor LXR-beta; format: functional, cell-based; remark: listed apart in the source
[11] = human group III sPLA2 inhibitors, dose response, biochemical, QFRET, IC50 (AID 743457);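 note: green fluorescence rise as the enzyme cleaves BODIPY PC-A2 in liposomes; potency for inhibition of the enzyme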
[12] = HepG2 cell cytotoxicity, dose response, cytotoxicity control, ATP luminescence, cherry-pick, activator set 2 (AID 1053143); format: functional, cell-based
[13] = HEK293T cytotoxicity, dose response, cytotoxicity control for miR-122 modulator project, cell-based, activator set, cherry-pick (AID 720690); format: functional;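 note: HEK293T human cells scored for general mammalian cytotoxicity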
Protein skinhead-1 = target: T3, Protein skinhead-1 (Caenorhabditis elegans, UniProt P34707); format: functional
T3 sequence (P34707 whole entry): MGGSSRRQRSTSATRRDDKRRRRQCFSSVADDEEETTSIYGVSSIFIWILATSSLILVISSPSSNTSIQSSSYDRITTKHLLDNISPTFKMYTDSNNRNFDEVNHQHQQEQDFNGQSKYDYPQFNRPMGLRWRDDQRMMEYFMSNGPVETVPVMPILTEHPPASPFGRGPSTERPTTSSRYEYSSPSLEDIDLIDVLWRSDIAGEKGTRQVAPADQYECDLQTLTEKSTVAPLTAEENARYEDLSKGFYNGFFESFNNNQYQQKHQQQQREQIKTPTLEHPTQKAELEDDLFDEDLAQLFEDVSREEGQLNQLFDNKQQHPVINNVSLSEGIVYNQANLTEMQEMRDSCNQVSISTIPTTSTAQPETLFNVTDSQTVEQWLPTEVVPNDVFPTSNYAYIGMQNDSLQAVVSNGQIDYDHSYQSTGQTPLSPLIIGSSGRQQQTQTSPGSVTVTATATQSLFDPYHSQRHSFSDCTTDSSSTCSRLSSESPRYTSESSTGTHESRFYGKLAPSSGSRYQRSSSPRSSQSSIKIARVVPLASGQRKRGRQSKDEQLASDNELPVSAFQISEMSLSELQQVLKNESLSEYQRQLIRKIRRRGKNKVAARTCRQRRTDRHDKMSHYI

[14] = target: T4, RNA-editing ligase 1, mitochondrial (Trypanosoma brucei brucei, UniProt P86926); assay: TbREL1 ligase inhibitors, dose response, biochemical, fluorescence, Trypanosoma brucei (AID 1117295); format: functional
T4 sequence (P86926 whole entry): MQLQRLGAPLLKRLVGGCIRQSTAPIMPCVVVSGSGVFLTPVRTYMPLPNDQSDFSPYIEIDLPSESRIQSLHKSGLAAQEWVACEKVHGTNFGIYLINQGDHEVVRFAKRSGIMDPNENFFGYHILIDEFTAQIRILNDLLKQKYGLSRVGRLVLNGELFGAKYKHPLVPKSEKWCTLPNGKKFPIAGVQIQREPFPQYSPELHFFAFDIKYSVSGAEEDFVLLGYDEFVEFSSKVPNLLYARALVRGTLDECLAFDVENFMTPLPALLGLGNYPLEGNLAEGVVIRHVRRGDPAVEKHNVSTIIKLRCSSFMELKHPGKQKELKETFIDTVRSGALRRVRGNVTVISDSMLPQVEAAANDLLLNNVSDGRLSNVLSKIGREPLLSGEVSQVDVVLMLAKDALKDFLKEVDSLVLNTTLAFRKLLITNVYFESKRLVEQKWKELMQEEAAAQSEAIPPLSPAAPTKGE

[15] = target: T5, Histone-lysine N-methyltransferase NSD2 (Homo sapiens, UniProt O96028); format: biochemical
T5 sequence (O96028 whole entry): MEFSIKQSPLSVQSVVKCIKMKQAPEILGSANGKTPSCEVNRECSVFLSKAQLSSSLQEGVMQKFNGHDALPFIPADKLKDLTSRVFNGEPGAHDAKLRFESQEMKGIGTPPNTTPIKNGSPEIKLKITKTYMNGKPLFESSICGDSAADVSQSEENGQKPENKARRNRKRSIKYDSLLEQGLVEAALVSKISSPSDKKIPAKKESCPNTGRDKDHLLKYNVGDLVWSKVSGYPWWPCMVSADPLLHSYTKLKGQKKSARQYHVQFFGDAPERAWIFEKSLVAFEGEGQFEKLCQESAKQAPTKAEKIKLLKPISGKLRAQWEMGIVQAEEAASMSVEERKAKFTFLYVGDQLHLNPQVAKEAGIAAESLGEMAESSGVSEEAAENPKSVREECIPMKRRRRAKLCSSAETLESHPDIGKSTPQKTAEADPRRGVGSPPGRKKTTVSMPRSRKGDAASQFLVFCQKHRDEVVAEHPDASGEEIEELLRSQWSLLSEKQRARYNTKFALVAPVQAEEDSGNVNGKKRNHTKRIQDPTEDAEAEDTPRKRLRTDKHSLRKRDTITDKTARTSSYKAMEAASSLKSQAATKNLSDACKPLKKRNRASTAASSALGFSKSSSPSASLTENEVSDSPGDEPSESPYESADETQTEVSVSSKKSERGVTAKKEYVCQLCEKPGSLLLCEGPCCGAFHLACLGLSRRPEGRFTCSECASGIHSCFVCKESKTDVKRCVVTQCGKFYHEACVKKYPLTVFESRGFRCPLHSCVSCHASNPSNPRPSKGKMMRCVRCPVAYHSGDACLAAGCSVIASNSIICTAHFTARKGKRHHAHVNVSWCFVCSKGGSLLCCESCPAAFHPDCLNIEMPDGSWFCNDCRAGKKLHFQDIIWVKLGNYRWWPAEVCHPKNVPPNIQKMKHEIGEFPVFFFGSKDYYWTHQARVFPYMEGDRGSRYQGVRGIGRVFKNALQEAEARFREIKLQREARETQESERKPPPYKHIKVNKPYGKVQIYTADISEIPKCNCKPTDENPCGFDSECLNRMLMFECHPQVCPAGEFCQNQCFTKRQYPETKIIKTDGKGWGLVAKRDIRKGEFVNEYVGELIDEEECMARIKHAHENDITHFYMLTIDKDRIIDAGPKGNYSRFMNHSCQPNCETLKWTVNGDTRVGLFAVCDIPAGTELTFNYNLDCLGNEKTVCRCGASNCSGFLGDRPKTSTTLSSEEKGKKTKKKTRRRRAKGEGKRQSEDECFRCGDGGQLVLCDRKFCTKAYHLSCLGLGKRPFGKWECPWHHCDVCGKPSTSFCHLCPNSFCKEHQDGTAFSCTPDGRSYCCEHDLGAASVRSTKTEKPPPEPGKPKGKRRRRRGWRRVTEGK

[16] = HEK293T cytotoxicity, dose response, cytotoxicity control for miR-122 modulator project, cell-based, inhibitor set, cherry-pick, set 2 (AID 720697); format: functional
[17] = target: T6, Mannose-6-phosphate isomerase (Homo sapiens, UniProt P34949); assay: human PMI inhibitors, high substrate, primary screen, biochemical, fluorescence intensity, high mannose 6-phosphate (AID 1220)
T6 sequence (P34949 whole entry): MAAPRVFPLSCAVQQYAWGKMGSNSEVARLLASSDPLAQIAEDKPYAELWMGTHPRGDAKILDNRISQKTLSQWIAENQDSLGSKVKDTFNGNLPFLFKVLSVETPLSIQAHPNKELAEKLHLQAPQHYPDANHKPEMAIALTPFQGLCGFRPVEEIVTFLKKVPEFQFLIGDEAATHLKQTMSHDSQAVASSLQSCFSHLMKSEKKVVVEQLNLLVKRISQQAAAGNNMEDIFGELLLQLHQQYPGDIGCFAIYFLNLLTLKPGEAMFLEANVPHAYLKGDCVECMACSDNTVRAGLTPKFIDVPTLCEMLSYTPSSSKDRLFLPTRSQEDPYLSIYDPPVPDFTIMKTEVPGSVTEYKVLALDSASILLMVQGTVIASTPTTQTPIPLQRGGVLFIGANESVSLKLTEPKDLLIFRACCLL

[18] = target: T6, Mannose-6-phosphate isomerase; assay: inhibitors of human PMI, primary screen, biochemical, fluorescence intensity, coupled assay (AID 1209)

SMILES: Cc1ccsc1/C=N/Nc1cccc(C(=O)O)c1
IC50 [1]: 92.5 µM (active)
AC50 [2]: 1.32 µM (active)
AC50 [3]: > 52 µM (inactive)
AC50 (Paired box protein Pax-8): 4.41 µM (active)
AC50 [4]: 1.14 µM (active)
EC50 (cells): > 67.5 µM (inactive)
AC50 [5]: 1.3 µM (active)
EC50 [6]: > 67.5 µM (inactive)
AC50 [7]: 7.12 µM (active)
AC50 [8]: 2.45 µM (active)
AC50 [9]: 2.65 µM (active)

SMILES: CCN(CC)c1ccc(/C=N/NC(=S)NC)c(O)c1
IC50 [1]: 58.2 µM (active)
IC50 [11]: > 122 µM (inactive)

SMILES: CC(=O)CC1(O)C(=O)N(Cc2ccccc2)c2ccccc21 (configuration not stated)
AC50 [12]: > 52 µM (inactive)

SMILES: CNC[C@H]1Oc2cc(C#CC3CCCC3)ccc2S(=O)(=O)N([C@H](C)CO)C[C@H]1C
AC50 [13]: 30.9 µM (active)

SMILES: C/C(=N/N=C(/C)c1cccs1)c1cccs1
EC50 (cells): > 67.6 µM (inactive)
EC50 [6]: > 67.6 µM (inactive)

SMILES: Fc1cccc(F)c1/C=C/c1ccc2ccccc2n1
IC50 (Protein skinhead-1): 36.8 µM (active)
EC50 (cells): > 67.5 µM (inactive)
EC50 [6]: > 67.5 µM (inactive)

SMILES: COC(=O)C1=C(C)N(Cc2cccc(C(F)(F)F)c2)C(NCc2cc(OC)c(OC)c(OC)c2)=NC1CCc1ccccc1 (configuration not stated)
IC50 [14]: > 96.6 µM (inactive)

SMILES: CNCCCC12CCC(c3ccccc31)c1ccccc12 [MAPROTILINE]
AC50 [15]: > 20 µM (inactive)

SMILES: COc1ccc(CC(NC(C)=O)C(=O)N2CCN(C(=O)N(C(C)C)C(C)C)CC2)cc1 (configuration not stated)
AC50 [16]: 0.834 µM (active)

SMILES: COCCN(C[C@@H]1[C@@H](c2ccccc2)[C@H](CO)N1C(=O)C1CC1)C(C)=O
AC50 [16]: 0.502 µM (active)

SMILES: Cc1ccc(C(=O)Nc2ncc(Cc3ccc(F)cc3)s2)o1
AC50 [12]: 12 µM (active)

More lines, now with the values ahead:

EC50 [10]: > 67.6 µM (inactive)
SMILES: Cc1ccc(-c2nnc(NC3CCCC3)s2)cc1

EC50 [10]: > 67.5 µM (inactive)
SMILES: CN(C)c1cccc(-c2cnc(N3CCC(C(N)=O)CC3)s2)c1

IC50 [11]: > 122 µM (inactive)
SMILES: O=C(NNC(=S)Nc1ccc(Br)cc1)c1cccnc1

EC50 [10]: > 67.5 µM (inactive)
SMILES: COC(=O)c1sc2nc3c(cc2c1N)CCCC3

IC50 [17]: 7.13 µM (active)
AC50 [15]: 4.96 µM (active)
IC50 [18]: 5.12 µM (active)
SMILES: CN(Cc1c(O)ccc2c1oc(=O)c1ccccc12)C1CCCCC1
